Converted amounts (≈) assume the structure as drawn. Where a name gives a salt, the structure may show the parent alone.
Columns and labels:
[1] = tested on: MRSA BAA-44; test: MIC of antibiotics in absence and presence of 11b (broth microdilution); format: cell-based, S. aureus; details: for Fold of potentiation: MIC alone versus with 10 μM 11b; for MIC: Staphylococcus aureus, antibiotic alone; for MIC (+11b): in the presence of 10 μM 11b
Description: The MICs of a variety of antibiotics in the presence and absence of 11b, respectively. In addition to methicillin, BAA-44 is also resistant to a wide range of antibiotics, such as tetracycline, erythromycin, and daptomycin. As shown in Table 2-3, compound 11b potentiates the activity of all β-lactams tested, such as oxacillin, amox/clav, cefazolin, and meropenem. Without being bound by any theory, it is believed compound 11b and other compounds of the invention are selective potentiators of β-lactams.
(§1) The minimal inhibitory concentrations (MICS) of antimicrobial compounds and 11b were determined by the broth microdilution method detailed in the Clinical and Laboratory Standards Institute (CLSI) handbook. All antimicrobial compounds were purchased from Sigma-Aldrich. The growth media used for all MIC experiments was Mueller Hinton Broth (MHB) purchased from HIMEDIA through VWR (cat: 95039-356). The inoculum was prepared by diluting a bacterial day culture (OD600 0.15-0.4) to OD600 0.002. This dilution was further diluted two fold when added to 96 well microplates (USA Scientific CytoOne 96-well TC plate, cat: CC7682-7596) for a final inoculum concentration of OD600 0.001. All plates were incubated at 37° C. with shaking for 18 hours before results were interpreted.
The MRSA strain ATCC BAA-44 was used to determine the MIC values of various antimicrobial compounds in the presence of 10 μM 11b. The experiment was conducted similarly to the CLSI MIC determination described previously; however, MHB was supplemented with 20 μM 11b prior to set up and inoculation. The final concentration of 11b after inoculation with BAA-44 was 10 μM.

[2] = tested on: MRSA strain ATCC BAA-44; test: Checkerboard MIC study of 11b and methicillin (FICI); format: cell-based, S. aureus; details: 11b with methicillin, ≤0.5 indicates synergy
Protocol: Tetracyclic indolenine compounds were then evaluated in a series of bacterial whole-cell assays. Compound 11b potentiated the activity of methicillin in a multi-drug resistant MRSA strain, ATCC BAA-44. To assess the degree of synergy between 11b and methicillin, a checkerboard minimum inhibitory concentration (MIC) study was performed.

[3] = tested on: BAA-44, NRS-100, NRS-384, NR-46414 and NR-46421; test: MIC of 11b on its own in a variety of MRSA and VRSA strains; format: cell-based, S. aureus; details: all strains tested
Protocol: (§2) The minimum re-sensitizing concentrations (MRCS) of 11b to re-sensitize a variety of MRSA strains to β-lactam antibiotics, amox/clav and cefazolin was also evaluated.
as §1

[4] = tested on: BAA-44, NRS-100, NRS-384, NR-46414 and NR-46421; test: MRC of 11b for amox/clav and cefazolin in a variety of MRSA and VRSA strains; format: cell-based, S. aureus; details: all strains tested
Protocol: as §2
(§3) Antibiotic MIC values where S. aureus is considered susceptible were determined from the CLSI handbook. MHB was supplemented with the antimicrobial at a concentration two fold greater than the CLSI susceptible MIC value. Two-fold serial dilutions of 11b were prepared in antibiotic supplemented media in 96-well microplates. These were inoculated with MRSA diluted to OD600 0.002 and incubated at 37° C. with shaking for 18 hours before results were interpreted. The concentration of 11b in antibiotic supplemented media at which there was no observable growth was considered the minimum resensitizing concentration (MRC). For amoxicillin/clavulanic acid, the initial concentration was 8/4 μg/mL; for cefazolin, 16 μg/mL. A 50 μL portion of the antibiotic containing media was added to each well of 96-well plates, and 100 μL was added to the top row. A 1.28 μL portion of 5 mg/mL 11b was added to the top row of each plate to afford a concentration of 64 μg/mL in the top row of each plate, and 2-fold serial dilutions were performed down the columns. […] The MRC value was determined as the concentration of 11b in the presence of antibiotic at which there was no observable overnight growth.

[5] = tested on: multi-drug resistant MRSA strain, ATCC BAA-44; test: Minimum re-sensitizing concentration (MRC) for amoxicillin/clavulanic acid; format: cell-based, S. aureus; details: MRSA ATCC BAA-44; re-sensitizing to amoxicillin/clavulanic acid
Protocol: (§4) ATIs 11-14 represent a wide range of clogD values and their minimum re-sensitizing concentrations (MRCS) for cefazolin (i.e., a first-generation cephalosporin) and amoxicillin/clavulanic acid (i.e., Augmentin, amox/clav) was evaluated as well as their minimum inhibitory concentrations (MICs) in a multi-drug resistant MRSA strain, ATCC BAA-44. Any compounds with promising MRC and MIC were then evaluated for potential mammalian toxicity by determining their half growth inhibitory concentrations (GI50) in human cervical adenocarcinoma (HeLa) cells.
(§5) Antibiotic MIC values where S. aureus is considered susceptible were determined from the CLSI handbook. MHB was supplemented with the antimicrobial at a concentration two fold greater than the CLSI susceptible MIC value. Two-fold serial dilutions of 11b were prepared in antibiotic supplemented media in 96-well microplates. These were inoculated with MRSA diluted to OD600 0.002 and incubated at 37° C. with shaking for 18 hours before results were interpreted. The concentration of 11b in antibiotic supplemented media at which there was no observable growth was considered the minimum resensitizing concentration (MRC). For amoxicillin/clavulanic acid, the initial concentration was 8/4 μg/mL; for cefazolin, 16 μg/mL. A 50 μL portion of the antibiotic containing media was added to each well of 96-well plates, and 100 μL was added to the top row. A 1.28 μL portion of 5 mg/mL 11b was added to the top row of each plate to afford a concentration of 64 μg/mL in the top row of each plate, and 2-fold serial dilutions were performed down the columns. Once the plates were prepared, a day culture of MRSA was diluted to OD600 0.002, and 50 μL was added to each well. The final concentration of MRSA added was OD600 0.001, the final concentration of amoxicillin/clavulanic acid was 4/2 μg/mL, the final concentration of cefazolin was 8 μg/mL, and the highest concentration of 11b tested was 32 μg/mL. Plates were incubated overnight at 37° C. with shaking. The MRC value was determined as the concentration of 11b in the presence of antibiotic at which there was no observable overnight growth.

[6] = tested on: multi-drug resistant MRSA strain, ATCC BAA-44; test: Minimum re-sensitizing concentration (MRC) for cefazolin; format: cell-based, S. aureus; details: MRSA ATCC BAA-44; re-sensitizing to cefazolin
Protocol: as §4, §5

[7] = tested on: multi-drug resistant MRSA strain, ATCC BAA-44; test: Minimum inhibitory concentration (MIC) of the compound alone; format: cell-based, S. aureus; details: for MIC: Staphylococcus aureus, MRSA ATCC BAA-44, compound alone; for antibacterial activity on its own (in words): MRSA BAA-44
Protocol: as §4, §1

[8] = tested on: MRSA strains NRS-100 and NRS-384, VRSA strain NR-46414; test: MRC of 13 in further MRSA/VRSA strains; format: cell-based, S. aureus; details: community-acquired MRSA NRS-100, NRS-384 and VRSA NR-46414
Protocol: Compound 14 is zwitterionic under physiological conditions and has even lower clogD value. Further evaluations of 13 in a variety of MRSA strains, such as community-acquired MRSA strains NRS-100 and NRS-384, and vancomycin-resistant S. aureus (VRSA) strain NR-46414, also gave a similar results (MRCs=2 μg mL^−1).
as §3, with “row.” for “row. A 1.28 μL portion of 5 mg/mL 11b was added to the top row of each plate to afford a concentration of 64 μg/mL in the top row of each plate, and 2-fold serial dilutions were performed down the columns.”

[9] = in vitro; details: dog, MDCK
Protocol: (§6) To test this, permeability assessments were performed using MDCK cells.

[10] = Saturated concentration (aqueous solubility); format: physicochemical
Protocol: (§7) The physiochemical properties of various compounds were evaluated. […] In vivo pharmacokinetic (PK) properties of 13 was evaluated.

[11] = Half growth inhibitory concentration (GI50), mammalian toxicity; format: cell-based; details: human, HeLa cells (human cervical adenocarcinoma)
Protocol: as §4
To evaluate the cytotoxicity of 11b in mammalian cells, a cell viability assay was carried out using CellTiter-Glo luminescent cell viability assay kit (Promega). Human cervical adenocarcinoma HeLa cells were seeded on white, cell-culture treated 96-well plates (Corning: 3917) with Dulbecco's modified Eagle's medium (DMEM) supplemented with 10% fetal calf serum (FCS), 1% penicillin/streptomycin, at the densities of 20,000 cells/well. The medium volume for each well was 100 μL. Cells were incubated at 37° C. in 5% CO2/95% air for 16 hours. The medium was removed from each well and replaced with 99 μL of warmed fresh medium. To each well was then added 1.0 μL of 11b in DMSO with the final concentrations of 1.56-200 μg/mL. Each concentrate was performed in two replicates. After incubation at 37° C. for another 24 hours, the plates were equilibrated to room temperature for 30 minutes. 100 μL of CellTiter-Glo reagent (Promega) was added to each well and mixed for 2 minutes on an orbital shaker. The plate was incubated at room temperature for another 10 minutes to stabilize luminescent signal. The luminescence of each sample was recorded in an Envision Multilabel Plate Reader (Perkin Elmer).

[12] = In vivo pharmacokinetics and tolerability, single IP dose; details: mouse
Protocol: as §7, §6

SMILES	Fold of potentiation [1]	MIC [1]	MIC (+11b) [1]	MRC Amox/clav [5]	MRC Cef [6]	MIC [7]	other results
Cc1nnc(SCC2=C(C(=O)O)N3C(=O)[C@@H](NC(=O)Cn4cnnn4)[C@H]3SC2)s1 [Cefazolin]	32	128 mg/L	4 mg/L				
C=C1CCC2C3=Nc4ccccc4C13CCN2C(=O)c1ccc(Cl)cc1 (stereo not drawn) [Compound 11b, 11-[(4-Chlorophenyl)carbonyl]-14-methylidene-8,11-diazatetracyclo[8.3.3.0^1,9.0^2.7]hexadeca-2(7),3,5,8-tetraene]							Fractional Inhibitory Concentration Index (FICI) [2]: 0.039; MICs [3]: 32 to 64 µg/mL; MRCs [4]: 0.25 to 2 µg/mL
C=C1CN(CC(=O)O)C[C@@H]2Nc3c(F)cc(Br)cc3[C@]12CCNS(=O)(=O)c1ccc(Cl)cc1 [Gly-ATI 14, 2-((4aS,9aR)-6-bromo-4a-(2-((4-chlorophenyl)sulfonamido)ethyl)-8-fluoro-4-methylene-1,3,4,4a,9,9a-hexahydro-2H-pyrido[3,4-b]indol-2-yl)acetic acid]				>32 µg/mL	>32 µg/mL	> 32 mg/L	
C=C1CN(C(=N)N)C[C@@H]2Nc3c(F)cc(Br)cc3[C@]12CCNS(=O)(=O)c1ccc(Cl)cc1 [Guan-ATI 13, (4aS,9aR)-6-bromo-4a-(2-((4-chlorophenyl)sulfonamido)ethyl)-8-fluoro-4-methylene-1,3,4,4a,9,9a-hexahydro-2H-pyrido[3,4-b]indole-2-carboximidamide]				2 µg/mL	2 µg/mL	8 mg/L (≈ 14.7 µM)	MRCs [8]: 2 µg/mL; Papp [9]: 21.1 nm/s; saturated concentration [10]: 587 µg/mL; saturated concentration as fold of MRC in MRSA [10]: ~300 fold; GI50 at 24 h [11]: 40 mg/L (≈ 73.7 µM); plasma levels as multiple of MRC in MRSA ([12]; in vivo, 30 min): approximately 4 ×MRC; AUC ([12]; plasma, 30 mg/kg): 18.2 µg·h/mL; Cmax ([12]; plasma, 30 mg/kg): 8 µg/mL; half-life ([12]; plasma, 30 mg/kg): 2.5 h
C[C@@H](O)[C@H]1C(=O)N2C(C(=O)O)=C(S[C@@H]3CN[C@H](C(=O)N(C)C)C3)[C@H](C)[C@H]12 [Meropenem]	4	4 mg/L	1 mg/L				
COc1cccc(OC)c1C(=O)N[C@@H]1C(=O)N2[C@@H]1SC(C)(C)[C@@H]2C(=O)O [Methicillin]	16	128 mg/L	8 mg/L				
C=C1CN(S(C)(=O)=O)C[C@@H]2Nc3c(F)cc(Br)cc3[C@]12CCNS(=O)(=O)c1ccc(Cl)cc1 [Ms-ATI 11b, N-(2-((4aS,9aR)-6-bromo-8-fluoro-4-methylene-2-(methylsulfonyl)-1,2,3,4,9,9a-hexahydro-4aH-pyrido[3,4-b]indol-4a-yl)ethyl)-4-chlorobenzenesulfonamide]				>32 µg/mL	>32 µg/mL	> 32 mg/L	
C=C1CNC[C@@H]2Nc3c(F)cc(Br)cc3[C@]12CCNS(=O)(=O)c1ccc(Cl)cc1 [NH-ATI 12, N-(2-((4aS,9aR)-6-bromo-8-fluoro-4-methylene-1,2,3,4,9,9a-hexahydro-4aH-pyrido[3,4-b]indol-4a-yl)ethyl)-4-chlorobenzenesulfonamide]				4 µg/mL	4 µg/mL	8 mg/L (≈ 16 µM)	GI50 at 24 h [11]: 6.7 mg/L (≈ 13.4 µM); antibacterial activity on its own (in words) [7]: potent antibacterial activity on its own
C=C1CN(S(=O)(=O)c2ccc([N+](=O)[O-])cc2)C[C@@H]2Nc3c(F)cc(Br)cc3[C@]12CCNS(=O)(=O)c1ccc(Cl)cc1 [Ns-ATI 11a, N-(2-((4aS,9aR)-6-bromo-8-fluoro-4-methylene-2-((4-nitrophenyl)sulfonyl)-1,2,3,4,9,9a-hexahydro-4aH-pyrido[3,4-b]indol-4a-yl)ethyl)-4-chlorobenzenesulfonamide]				>32 µg/mL	>32 µg/mL	> 32 mg/L	
Cc1onc(-c2ccccc2)c1C(=O)N[C@@H]1C(=O)N2[C@@H]1SC(C)(C)[C@@H]2C(=O)O [Oxacillin]	32	32 mg/L	1 mg/L				
C=C1CN(C(=O)C(F)(F)F)C[C@@H]2Nc3c(F)cc(Br)cc3[C@]12CCNS(=O)(=O)c1ccc(Cl)cc1 [TFA-ATI 11c, N-(2-((4aS,9aR)-6-bromo-8-fluoro-4-methylene-2-(2,2,2-trifluoroacetyl)-1,2,3,4,9,9a-hexahydro-4aH-pyrido[3,4-b]indol-4a-yl)ethyl)-4-chlorobenzenesulfonamide]				4 µg/mL	4 µg/mL	> 32 mg/L	GI50 at 24 h [11]: 19 mg/L; antibacterial activity on its own (in words) [7]: without observable antibacterial activity
OC[C@@H](O)[C@@H](O)[C@H](O)[C@H](O)CO [mannitol]							Papp [9]: 15.1 nm/s
COCCc1ccc(OCC(O)CNC(C)C)cc1 (stereo not drawn) [metoprolol]							Papp [9]: 535 nm/s
